From US7276604B2, “Crystalline form of the sodium salt of 3-pyridyl-1-hydroxyethylidene-1,1-bisphosphonic acid” (Zentiva A.S., priority 2002, dated 2007)
Counter-ions that a name gives are not always drawn.

Columns and labels:
Type in all cases: physicochemical
[1] = Drying in vacuum oven and re-uptake of water (stability of water content, Karl Fischer / TGA); conditions: for water content after standing at 100% relative air humidity: within two hours; for hygroscopicity of the dried product: after drying in a vacuum oven
From the text: An useful example of such a hydrate is a modification that is characterized by water content 20 up to 23%, specially with 22.8 w. % of water, and sodium content 5.5 up to 7.5%, specially 6.4 up to 6.7 w. %. The specified water content is built in the crystal lattice and the mentioned crystalline modification is thermodynamically stable. By drying with several different drying regimes, the mentioned crystalline modification was dried to the water content corresponding to the pentahemihydrate, the monohydrate and the anhydrous form of sodium 3-pyridyl-1-hydroxyethylidene-1,1-bisphosphonate. When the substance is left standing on the air, the water content stabilizes spontaneously at the original level. Time that it takes for the water content to stabilize depends on relative humidity in the environment in which the dried substance is placed.
(§1) Water content in the substance was determined using a method according to Karl Fischer and TGA analyses. Sodium content in the substance was determined using acidobasic titration and AAS. Solubility tests were performed according to the Technical Guide European Pharmacopeia.
The dried product is hygroscopic. If the substance is left standing at room temperature and usual relative air humidity, the water content returns to the original level within 12 hours.
In the pentahydrate dried in a vacuum oven at 105° C., the substance's water content decreases to 3% after six hours. The dried product is hygroscopic. If the substance is left standing at room temperature and usual relative air humidity, the water content increases with a speed of about 0.5% an hour. Within 11 days, the substance's water content returns to about 20 weight %.
In trihydrate of the trisodium salt dried in a vacuum oven at 105° C., the substance's water content decreases to 1.1% after 6 hours. The dried product is hygroscopic. If the substance is placed in an environment with 100% relative air humidity, the water content returns to the original level within two hours.
In trihydrate of the disodium salt dried in a vacuum oven at 105° C., the substance's water content decreases to approximately 1.7% after 6 hours. The dried product is hygroscopic. If the substance is placed in an environment with 100% relative air humidity, the water content returns to the level of approximately 5.2% within two hours.

[2] = Solubility test in 0.1 M HCl with pH 1.1 (Technical Guide European Pharmacopeia); conditions: for dissolution observed: 0.1 M HCl pH 1.1, 0.1, 0.9, 2.0 and 7.0 ml added gradually, 25° C. for 15 min; for proportion of the dissolved substance: 0.1 M HCl pH 1.1, 10.0 ml added in total to about 100 mg, 25° C., HPLC
Method: as §1
0.1 ml; 0.9 ml, 2.0 and 7.0 ml of 0.1 M HCl with pH 1.1 were gradually added to a 106.8 mg sample of risedronate monosodium salt pentahemihydrate. The suspension was mixed for 1 min and tempered to 25° C. for 15 min after each addition of acid. […] The proportion of the dissolved substance was determined to be 9.46% using HPLC.
0.1 ml; 0.9 ml, 2.0 and 7.0 ml of 0.1 M HCl with pH 1.1 were gradually added to a 99.07 mg sample of risedronate monosodium salt pentahydrate. The suspension was mixed for 1 min and tempered to 25° C. for 15 min after each addition of acid. […] The proportion of the dissolved substance was determined to be 31.62% using HPLC.

[3] = Solubility test in water (Technical Guide European Pharmacopeia); conditions: for dissolution observed: 0.1, 0.9 and 2.0 ml added gradually, 25° C. for 15 min; for proportion of the dissolved substance: 3.0 ml added in total to about 100 mg, 25° C., HPLC
Method: as §1
0.1 ml; 0.9 ml and 2.0 ml of water were gradually added to a 100.25 mg sample of risedronate monosodium salt pentahemihydrate. The suspension was mixed for about 1 min and tempered to 25° C. for 15 min after each addition of water. […] The proportion of the dissolved substance was determined to be 100% using HPLC.
0.1 ml; 0.9 ml and 2.0 ml of water were gradually added to a 98.78 mg sample of risedronate monosodium salt pentahydrate. The suspension was mixed for about 1 min and tempered to 25° C. for 15 min after each addition of water. […] The proportion of the dissolved substance was determined to be 100% using HPLC.

[4] = after drying at 105° C., 100% relative air humidity
[5] = vacuum oven at 105° C., after 6 hours

SMILES | dissolution observed [2] | proportion of the dissolved substance [2] [%] | dissolution observed [3] | proportion of the dissolved substance [3] [%] | hygroscopicity of the dried product [1] | water content after drying [1, 5] [%] | further results
O=P(O)(O)C(O)(Cc1cccnc1)P(=O)(O)O [Risedronate disodium salt monohydrate, disodium 3-pyridyl-1-hydroxyethylidene-1,1-bisphosphonate] | – | – | – | – | – | – | water content after standing at 100% relative air humidity ([1]; after drying at 105° C., 100% relative air humidity, listed as trihydrate of the disodium salt): approximately 5.2%; period in which the water content mostly stabilizes at the given value ([1]; dried at different conditions, then high relative humidity, 'mostly'): less than 12 hours; water content after drying ([1]; vacuum oven at 105° C., after 6 hours, listed as trihydrate of the disodium salt): approximately 1.7%
O=P(O)(O)C(O)(Cc1cccnc1)P(=O)(O)O [risedronate monosodium salt pentahemihydrate] [monosodium 3-pyridyl-1-hydroxyethylidene-1,1-bisphosphonate, reference compound] | did not dissolve completely | 9.46 | completely dissolved | 100 | – | – | –
O=P(O)(O)C(O)(Cc1cccnc1)P(=O)(O)O [risedronate monosodium salt pentahydrate, monosodium 3-pyridyl-1-hydroxyethylidene-1,1-bisphosphonate] | did not dissolve completely | 31.62 | completely dissolved | 100 | hygroscopic | 3 | time for water content to return to the original level ([1]; after drying at 50° C., room temperature and usual relative air humidity): ≤ 12 h; water content after standing at 100% relative air humidity [1, 4]: 22.7%; speed of water content increase ([1]; after drying at 105° C., room temperature and usual relative air humidity): about 0.5 % an hour; water content after standing ([1]; after drying at 105° C., room temperature and usual relative air humidity, within 11 days): about 20 weight %; stability of the regained water content ([1]; usual lab conditions): stable and does not change; water content after drying ([1]; vacuum oven at 50° C., after six hours): 11.5%; solubility in 0.1 M hydrochloric acid compared with the pentahemihydrate form ([2]; 0.1 M HCl pH 1.1): significantly more soluble
O=P(O)(O)C(O)(Cc1cccnc1)P(=O)(O)O [trihydrate of the trisodium salt, trisodium 3-pyridyl-1-hydroxyethylidene-1,1-bisphosphonate] | – | – | – | – | hygroscopic | 1.1 | time for water content to return to the original level [1, 4]: two
